Experimental data reported in patent US20240327381A1, “Compounds and Compositions for Selective Degradation of Engineered Proteins” (Celgene Corporation, priority 2023, published 2024).

What was measured:
Format in all cases: cell-based
Helios [1] = biological target: T1, Helios (Homo sapiens, UniProt Q96SW2+Q9UKS7); test: Helios degradation in Jurkat/Helios/HiBit cells (Nano-Glo luminescence); conditions: for Helios Jurkat Hibit YMax: Ymax is the % protein degraded, 18 hr
T1 construct: endogenous in cells; host or cells: Jurkat cells, CRISPR/Cas9 knock-in of HiBit at the IKZF2 locus
T1 sequence (Q9UKS7 whole entry): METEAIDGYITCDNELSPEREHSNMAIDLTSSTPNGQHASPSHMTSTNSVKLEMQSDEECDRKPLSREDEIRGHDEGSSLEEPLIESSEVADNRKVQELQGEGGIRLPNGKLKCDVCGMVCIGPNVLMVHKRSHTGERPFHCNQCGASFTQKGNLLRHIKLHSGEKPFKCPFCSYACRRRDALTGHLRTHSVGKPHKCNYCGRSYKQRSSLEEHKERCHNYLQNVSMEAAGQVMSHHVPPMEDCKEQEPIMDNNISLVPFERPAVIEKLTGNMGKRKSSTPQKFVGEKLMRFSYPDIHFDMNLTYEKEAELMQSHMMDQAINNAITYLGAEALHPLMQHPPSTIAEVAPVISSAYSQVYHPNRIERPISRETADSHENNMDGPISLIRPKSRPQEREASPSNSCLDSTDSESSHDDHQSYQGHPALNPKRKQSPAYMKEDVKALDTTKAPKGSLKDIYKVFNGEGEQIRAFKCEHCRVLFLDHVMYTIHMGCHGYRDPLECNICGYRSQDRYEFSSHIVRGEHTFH
T1 sequence (Q96SW2 whole entry): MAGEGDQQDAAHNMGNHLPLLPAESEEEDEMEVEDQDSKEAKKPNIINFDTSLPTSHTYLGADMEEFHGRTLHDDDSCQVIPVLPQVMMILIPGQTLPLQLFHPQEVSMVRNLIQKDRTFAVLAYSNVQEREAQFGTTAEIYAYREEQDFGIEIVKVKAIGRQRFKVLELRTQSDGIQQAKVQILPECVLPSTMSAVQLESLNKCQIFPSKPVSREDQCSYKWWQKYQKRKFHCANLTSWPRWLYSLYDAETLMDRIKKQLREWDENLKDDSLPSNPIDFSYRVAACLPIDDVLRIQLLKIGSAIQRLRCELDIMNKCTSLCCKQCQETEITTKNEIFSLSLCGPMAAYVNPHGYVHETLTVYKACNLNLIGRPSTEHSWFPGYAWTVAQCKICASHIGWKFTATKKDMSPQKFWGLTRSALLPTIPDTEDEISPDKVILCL
T1 sequence (Q16531 whole entry partner): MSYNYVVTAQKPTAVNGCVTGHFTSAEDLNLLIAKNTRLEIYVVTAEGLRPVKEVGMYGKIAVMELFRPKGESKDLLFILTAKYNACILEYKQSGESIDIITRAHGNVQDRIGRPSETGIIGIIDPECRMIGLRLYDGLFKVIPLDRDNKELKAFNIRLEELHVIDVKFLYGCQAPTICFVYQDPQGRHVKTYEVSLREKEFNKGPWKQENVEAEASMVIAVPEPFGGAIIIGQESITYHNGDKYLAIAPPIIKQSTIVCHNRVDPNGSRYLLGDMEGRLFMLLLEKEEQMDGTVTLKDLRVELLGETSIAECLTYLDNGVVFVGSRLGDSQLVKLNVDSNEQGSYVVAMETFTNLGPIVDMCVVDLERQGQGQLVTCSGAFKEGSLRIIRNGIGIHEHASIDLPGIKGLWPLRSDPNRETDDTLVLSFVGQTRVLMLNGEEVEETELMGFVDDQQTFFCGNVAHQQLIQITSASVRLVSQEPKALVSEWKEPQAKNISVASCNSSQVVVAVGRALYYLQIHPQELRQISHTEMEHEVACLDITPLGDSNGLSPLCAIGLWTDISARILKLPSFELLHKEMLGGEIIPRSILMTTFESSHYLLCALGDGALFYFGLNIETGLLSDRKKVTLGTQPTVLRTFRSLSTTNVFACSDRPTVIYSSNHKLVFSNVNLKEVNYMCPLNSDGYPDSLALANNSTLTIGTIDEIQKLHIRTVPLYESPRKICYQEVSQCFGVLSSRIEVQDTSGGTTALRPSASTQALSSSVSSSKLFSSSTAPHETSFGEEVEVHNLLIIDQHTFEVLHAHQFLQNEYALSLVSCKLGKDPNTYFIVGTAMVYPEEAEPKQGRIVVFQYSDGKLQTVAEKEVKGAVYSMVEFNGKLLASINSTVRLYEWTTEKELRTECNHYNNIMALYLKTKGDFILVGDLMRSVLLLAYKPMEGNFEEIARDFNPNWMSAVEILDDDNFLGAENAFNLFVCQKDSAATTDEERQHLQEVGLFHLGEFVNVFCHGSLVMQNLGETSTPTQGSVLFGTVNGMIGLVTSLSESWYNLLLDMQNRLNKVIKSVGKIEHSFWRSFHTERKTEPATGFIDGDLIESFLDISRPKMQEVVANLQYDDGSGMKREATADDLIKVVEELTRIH
Outline: (§1)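 Jurkat cells carrying CRISPR-knocked-in C-terminal HiBit-tagged endogenous IKZF2 were treated with compound in DMEM/10% FCS (10,000 cells/well) for 18 h at 37 °C. HiBit signal was read by Nano-Glo luminescence after 30 min at RT. EC50 for degradation came from a four-parameter logistic fit, with Ymax as % protein degraded.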

[2] = biological target: T2, IKZF1 ZNF2_ZNF3 Q1F degron-tagged CD19 CAR (Homo sapiens, UniProt Q13422, Q146F); test: Degradation of Q1F degron-tagged CD19 CAR in Jurkat cells (flow cytometry of CAR levels); conditions: for DC50: Jurkat cells expressing CD19 CAR tagged with IKZF1 ZNF2_ZNF3 Q1F, 18 hours at 37° C., CAR levels normalized to untreated cells, read-out: Q1F Jurkat IC50; for Dmax: Ymax is the % protein degraded, Jurkat cells expressing Q1F degron-tagged CD19 CAR, 18 hours, read-out: Q1F Jurkat-YMax
T2 construct: ZNF2_ZNF3 Q1F degron (GERPFFCNQCGASFTQKGNLLRHIKLHSGEKPFKCHLCNYACRRRDALTGHLRTHS); fused on or other part: anti-CD19 scFv, CD28 transmembrane domain, 4-1BB costimulatory domain, CD3 zeta signaling domain (the CAR that carries the degron), and Nluc
T2 sequence (Q13422 whole entry Q146F, the tested form may be a part): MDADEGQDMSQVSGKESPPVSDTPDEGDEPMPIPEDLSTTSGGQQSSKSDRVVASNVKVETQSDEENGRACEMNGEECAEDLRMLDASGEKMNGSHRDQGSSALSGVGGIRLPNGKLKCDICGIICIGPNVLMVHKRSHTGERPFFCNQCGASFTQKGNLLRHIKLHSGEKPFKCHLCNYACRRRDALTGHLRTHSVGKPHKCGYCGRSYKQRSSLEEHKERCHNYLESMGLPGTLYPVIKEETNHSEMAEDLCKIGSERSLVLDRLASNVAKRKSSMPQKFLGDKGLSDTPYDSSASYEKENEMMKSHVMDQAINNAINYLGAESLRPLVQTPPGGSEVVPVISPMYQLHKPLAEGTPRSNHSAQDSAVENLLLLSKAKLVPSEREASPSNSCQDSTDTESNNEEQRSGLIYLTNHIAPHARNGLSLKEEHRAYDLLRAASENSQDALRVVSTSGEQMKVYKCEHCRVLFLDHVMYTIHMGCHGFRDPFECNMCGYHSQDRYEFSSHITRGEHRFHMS
Outline: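 Jurkat cells were lentivirally transduced with an anti-CD19 scFv/CD28 TM/4-1BB/CD3ζ CAR tagged with an IKZF1 ZNF2_ZNF3 Q1F degron–Nluc, then treated with compound titrations for 18 h at 37 °C. CAR surface levels were stained (20 min, 4 °C), read by flow cytometry and normalised to untreated cells. EC50 came from a four-parameter logistic fit; Ymin is the minimum % CAR remaining.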

Helios [3] = biological target: T3, Helios (Homo sapiens, UniProt Q9UKS7); test: Helios degradation in Jurkat/Helios/HiBit cells (Nano-Glo luminescence); conditions: 18 hr, read-out: Helios Jurkat Hibit IC50
T3 construct: endogenous in cells; host or cells: Jurkat cells, CRISPR/Cas9 knock-in of HiBit at the IKZF2 locus
T3 sequence (Q9UKS7 whole entry): as the sequence (Q9UKS7 whole entry) above
T3 sequence (Q96SW2 whole entry, further chain): as the sequence (Q96SW2 whole entry) above
T3 sequence (Q16531 whole entry partner): as the sequence (Q16531 whole entry partner) above
Outline: as §1

| Structure (SMILES) | DC50 [2] [µM] | Dmax [2] [%] | Helios Jurkat Hibit YMax (Helios [1]) [%] | DC50 (Helios [3]) [µM] | DC50 (Helios [1]; read-out: Helios Jurkat Hibit IC50, 18 hr) [µM] |
| --- | --- | --- | --- | --- | --- |
| O=C1CCC(N2Cc3c(cc(F)c(C4(O)CCN(Cc5ccc(C(F)(F)F)cc5)CC4)c3F)C2=O)C(=O)N1 (stereo not drawn) [Compound 11, 3-(4,6-difluoro-5-(4-hydroxy-1-(4-(trifluoromethyl)benzyl)piperidin-4-yl)-1-oxoisoindolin-2-yl)piperidine-2,6-dione] | 0.00491 | 83.5 |  |  | ≥ 10 |
| Cc1cc(-c2cc(F)c3c(c2)CN(C2CCC(=O)NC2=O)C3=O)nc(N)c1C (stereo not drawn) [Compound 16, 3-(5-(6-amino-4,5-dimethylpyridin-2-yl)-7-fluoro-1-oxoisoindolin-2-yl)piperidine-2,6-dione] | 0.00267 | 92.9 | 64.8253 | 0.012 |  |
| Cc1ccc(CN2CCC(c3c(F)cc4c(c3F)CN(C3CCC(=O)NC3=O)C4=O)CC2)cc1F (stereo not drawn) [Compound 46, 3-(4,6-difluoro-5-(1-(3-fluoro-4-methylbenzyl)piperidin-4-yl)-1-oxoisoindolin-2-yl)piperidine-2,6-dione] | 0.000112 | 91.8 | 50.8729 | 6520 |  |
| O=C1CCC(N2Cc3c(cc(F)c(C4CCN(Cc5ccc6[nH]ccc6c5)CC4)c3F)C2=O)C(=O)N1 (stereo not drawn) [Compound 61, 3-(5-(1-((1H-indol-5-yl)methyl)piperidin-4-yl)-4,6-difluoro-1-oxoisoindolin-2-yl)piperidine-2,6-dione] | 0.000204 | 93.4 | 59.5442 | 0.152 |  |
| O=C1CCC(N2Cc3c(cc(F)c(C4CCN(Cc5ccc6[nH]ncc6c5)CC4)c3F)C2=O)C(=O)N1 (stereo not drawn) [Compound 63, 3-(5-(1-((1H-indazol-5-yl)methyl)piperidin-4-yl)-4,6-difluoro-1-oxoisoindolin-2-yl)piperidine-2,6-dione] | 0.000103 | 93 | 55.0199 | 3.31 |  |
| CC1(C)Cc2cccc(CN3CCN(Cc4c(F)cc5c(c4F)CN(C4CCC(=O)NC4=O)C5=O)CC3)c2O1 (stereo not drawn) [Compound 75, 3-(5-((4-((2,2-dimethyl-2,3-dihydrobenzofuran-7-yl)methyl)piperazin-1-yl)methyl)-4,6-difluoro-1-oxoisoindolin-2-yl)piperidine-2,6-dione] | 0.00332 | 89 | 65.5325 | 0.0651 |  |
| O=C1CCC(N2Cc3c(cc(F)c(CN4CCN(Cc5ccc6c(c5)OCCO6)CC4)c3F)C2=O)C(=O)N1 (stereo not drawn) [Compound 76, 3-(5-((4-((2,3-dihydrobenzo[b][1,4]dioxin-6-yl)methyl)piperazin-1-yl)methyl)-4,6-difluoro-1-oxoisoindolin-2-yl)piperidine-2,6-dione] | 0.00489 | 88.8 | 72.1901 | 0.0063 |  |
| CCCCN1CCC(c2c(F)cc3c(c2F)CN(C2CCC(=O)NC2=O)C3=O)CC1 (stereo not drawn) [Compound 115, 3-(5-(1-butylpiperidin-4-yl)-4,6-difluoro-1-oxoisoindolin-2-yl)piperidine-2,6-dione] | 0.00666 | 79.7 |  | ≥ 10 |  |
| O=C1CC[C@H](N2Cc3c(cc(F)c(C4CC5CCC(C4)N5Cc4ccc5ncsc5c4)c3F)C2=O)C(=O)N1 (stereo partly drawn) [Compound 126, (3S)-3-(5-(8-(benzo[d]thiazol-6-ylmethyl)-8-azabicyclo[3.2.1]octan-3-yl)-4,6-difluoro-1-oxoisoindolin-2-yl)piperidine-2,6-dione] | 0.000427 | 92.2 |  | ≥ 10 |  |
| O=C1CC[C@@H](N2Cc3c(cc(F)c(C4CC5CCC(C4)N5Cc4ccc5ncsc5c4)c3F)C2=O)C(=O)N1 (stereo partly drawn) [Compound 127, (3R)-3-(5-(8-(benzo[d]thiazol-6-ylmethyl)-8-azabicyclo[3.2.1]octan-3-yl)-4,6-difluoro-1-oxoisoindolin-2-yl)piperidine-2,6-dione] | 0.00594 | 91.2 |  | ≥ 10 |  |
| O=C1CCC(N2Cc3c(cc(F)c(C4C[C@H]5CC[C@@H](C4)N5Cc4ccc(C(F)F)cc4)c3F)C2=O)C(=O)N1 (stereo partly drawn) [Compound 128, 3-(5-((1R,5S)-8-(4-(difluoromethyl)benzyl)-8-azabicyclo[3.2.1]octan-3-yl)-4,6-difluoro-1-oxoisoindolin-2-yl)piperidine-2,6-dione] | 0.0174 | 87.2 |  | ≥ 10 |  |

The next lines start with results.

| DC50 [2] [µM] | Dmax [2] [%] | Helios Jurkat Hibit YMax (Helios [1]) [%] | DC50 (Helios [3]) [µM] | Structure (SMILES) | DC50 (Helios [1]; read-out: Helios Jurkat Hibit IC50, 18 hr) [µM] |
| --- | --- | --- | --- | --- | --- |
| 0.00319 | 85.5 |  | ≥ 10 | O=C1CCC(N2Cc3c(cc(F)c(C4CCN(Cc5cnc6ccccc6n5)CC4)c3F)C2=O)C(=O)N1 (stereo not drawn) [Compound 116, 3-(4,6-difluoro-1-oxo-5-(1-(quinoxalin-2-ylmethyl)piperidin-4-yl)isoindolin-2-yl)piperidine-2,6-dione] |  |
| 0.00626 | 86.1 |  | ≥ 10 | O=C1CCC(N2Cc3c(cc(F)c(C4CCN(Cc5ccncc5)CC4)c3F)C2=O)C(=O)N1 (stereo not drawn) [Compound 117, 3-(4,6-difluoro-1-oxo-5-(1-(pyridin-4-ylmethyl)piperidin-4-yl)isoindolin-2-yl)piperidine-2,6-dione] |  |
| 0.00286 | 83 |  | ≥ 10 | O=C1CCC(N2Cc3c(cc(F)c(C4CCN(CCCOc5ccccc5)CC4)c3F)C2=O)C(=O)N1 (stereo not drawn) [Compound 118, 3-(4,6-difluoro-1-oxo-5-(1-(3-phenoxypropyl)piperidin-4-yl)isoindolin-2-yl)piperidine-2,6-dione] |  |
| 0.165 | 65.8 |  | ≥ 10 | O=C1CCC(N2Cc3c(cc(F)c(C4CCN(Cc5nnc(-c6ccccc6)o5)CC4)c3F)C2=O)C(=O)N1 (stereo not drawn) [Compound 120, 3-(4,6-difluoro-1-oxo-5-(1-((5-phenyl-1,3,4-oxadiazol-2-yl)methyl)piperidin-4-yl)isoindolin-2-yl)piperidine-2,6-dione] |  |
| 0.0204 | 76.7 |  | ≥ 10 | CS(=O)(=O)CCCN1CCC(c2c(F)cc3c(c2F)CN(C2CCC(=O)NC2=O)C3=O)CC1 (stereo not drawn) [Compound 121, 3-(4,6-difluoro-5-(1-(3-(methylsulfonyl)propyl)piperidin-4-yl)-1-oxoisoindolin-2-yl)piperidine-2,6-dione] |  |
| 0.0651 | 74.2 |  | ≥ 10 | CNC(=O)CN1CCC(c2c(F)cc3c(c2F)CN(C2CCC(=O)NC2=O)C3=O)CC1 (stereo not drawn) [Compound 122, 2-(4-(2-(2,6-dioxopiperidin-3-yl)-4,6-difluoro-1-oxoisoindolin-5-yl)piperidin-1-yl)-N-methylacetamide] |  |
| 0.0213 | 74.5 |  | ≥ 10 | O=C1CCC(N2Cc3c(cc(F)c(C4CCN(CCO)CC4)c3F)C2=O)C(=O)N1 (stereo not drawn) [Compound 123, 3-(4,6-difluoro-5-(1-(2-hydroxyethyl)piperidin-4-yl)-1-oxoisoindolin-2-yl)piperidine-2,6-dione] |  |
| 0.011 | 76.7 |  | ≥ 10 | COCCN1CCC(c2c(F)cc3c(c2F)CN(C2CCC(=O)NC2=O)C3=O)CC1 (stereo not drawn) [Compound 124, 3-(4,6-difluoro-5-(1-(2-methoxyethyl)piperidin-4-yl)-1-oxoisoindolin-2-yl)piperidine-2,6-dione] |  |
| 0.0221 | 80.1 |  | ≥ 10 | CN1CCC(N2CCC(c3c(F)cc4c(c3F)CN(C3CCC(=O)NC3=O)C4=O)CC2)CC1 (stereo not drawn) [Compound 125, 3-(4,6-difluoro-5-(1′-methyl-[1,4′-bipiperidin]-4-yl)-1-oxoisoindolin-2-yl)piperidine-2,6-dione] |  |
